These results are taken from patent US7982043B2, “Protein tyrosine kinase enzyme inhibitors” (Wyeth LLC, priority 2003, dated 2011).

≈ marks a conversion by molar mass, not a printed value. Where two headings read alike, the source gives them in different places.

Assay [1] deals with A431 cells. As to the kind of experiment: Cell proliferation assay (SRB), A431. In kind it is cell-based. The conditions noted are these: Homo sapiens, A-431, 48 h, read-out: CELL IC50 A431.
Assay [2] concerns the target mouse fibroblast cell line transfected with the HER-2 oncogene (3T3/neu) (UniProt P04626, cells depend on it, species not given). Description: Cell proliferation assay (SRB), 3T3/neu. The conditions noted are these: EGFR −, Her-2 +++; 2 days, SRB; read-out: CELL IC50 3T3/NEU (converted). In kind it is cell-based.
The subject of assay [3] is SK-Br-3 cells. Description: Cell proliferation assay (SRB), SK-Br-3. In kind it is cell-based. The conditions noted are these: Homo sapiens, SK-BR-3, 48 h; EGFR −, Her-2 +++; 2 days, SRB; read-out: CELL IC50 SKBr3.
For assay [4], the system named is SW620 cells. As to the kind of experiment: Cell proliferation assay (SRB), SW620. The conditions noted are these: Homo sapiens, SW-620, 48 h; EGFR −, Her-2 −; 2 days, SRB; read-out: CELL IC50 SW620. In kind it is cell-based.
The target of assay [5] is T1, Her-2 (Homo sapiens, UniProt P04626).
T1 construct: For Her-2 and EGFR phosphorylation assays, cells (BT474 and A431, respectively) were incubated with various concentrations of compound; endogenous in cells; host or cells: BT474
T1 sequence (P04626 23-1255): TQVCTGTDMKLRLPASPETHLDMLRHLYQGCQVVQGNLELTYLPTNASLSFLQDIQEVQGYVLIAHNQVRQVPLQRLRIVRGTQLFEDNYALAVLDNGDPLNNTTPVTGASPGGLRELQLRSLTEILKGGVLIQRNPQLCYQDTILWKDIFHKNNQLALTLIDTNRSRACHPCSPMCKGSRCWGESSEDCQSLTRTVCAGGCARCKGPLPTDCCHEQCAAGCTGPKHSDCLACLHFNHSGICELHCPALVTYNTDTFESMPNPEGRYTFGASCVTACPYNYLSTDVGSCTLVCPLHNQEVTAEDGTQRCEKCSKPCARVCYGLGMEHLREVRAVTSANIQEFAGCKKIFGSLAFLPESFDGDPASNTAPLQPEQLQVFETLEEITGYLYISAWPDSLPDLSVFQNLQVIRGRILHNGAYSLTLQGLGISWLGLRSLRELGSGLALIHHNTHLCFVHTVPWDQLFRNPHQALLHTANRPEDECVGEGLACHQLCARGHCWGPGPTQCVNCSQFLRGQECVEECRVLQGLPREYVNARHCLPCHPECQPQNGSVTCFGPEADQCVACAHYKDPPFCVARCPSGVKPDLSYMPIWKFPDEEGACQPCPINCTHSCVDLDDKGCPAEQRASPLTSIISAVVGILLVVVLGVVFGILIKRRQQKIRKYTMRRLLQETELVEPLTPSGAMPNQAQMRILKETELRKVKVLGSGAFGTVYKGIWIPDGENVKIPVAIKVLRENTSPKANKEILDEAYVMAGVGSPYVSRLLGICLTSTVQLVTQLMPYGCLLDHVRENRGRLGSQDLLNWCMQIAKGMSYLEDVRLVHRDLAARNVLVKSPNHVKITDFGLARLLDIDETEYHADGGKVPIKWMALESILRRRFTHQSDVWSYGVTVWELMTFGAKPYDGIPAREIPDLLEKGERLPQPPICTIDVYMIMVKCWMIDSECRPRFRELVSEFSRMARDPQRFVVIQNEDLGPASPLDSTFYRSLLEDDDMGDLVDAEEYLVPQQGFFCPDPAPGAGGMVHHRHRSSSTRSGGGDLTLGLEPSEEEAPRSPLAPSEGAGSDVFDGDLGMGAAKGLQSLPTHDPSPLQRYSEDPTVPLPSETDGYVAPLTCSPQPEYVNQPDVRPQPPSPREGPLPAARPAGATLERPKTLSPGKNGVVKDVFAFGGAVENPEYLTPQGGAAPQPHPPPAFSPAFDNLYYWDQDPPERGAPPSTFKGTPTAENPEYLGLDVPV
Description: Her-2 receptor phosphorylation in BT474 cells (immunoblot). In kind it is cell-based.

Assay [6] relates to MDA-MB-435 cells. As to the kind of experiment: Cell proliferation assay (SRB), MDA-MB-435. The format is cell-based. The conditions noted are these: Homo sapiens, MDA-MB-435, 48 h; EGFR −, Her-2 −; 2 days, SRB; read-out: CELL IC50 MDA-MB-435.
Assay [7] relates to 3T3 cells. As to the kind of experiment: Cell proliferation assay (SRB), 3T3. The conditions noted are these: Mus musculus. In kind it is cell-based, mouse.
Assay [8] deals with BT474 cells. Description: Cell proliferation assay (SRB), BT474. The format is cell-based, human. The conditions noted are these: Homo sapiens, BT-474, 144 h; EGFR +, Her-2 +++; 6 days, SRB; read-out: CELL IC50 BT474.
Assay [9] has as its target T2, recombinant cytoplasmic domain of HER-2 (Homo sapiens, UniProt P04626).
T2 construct: In a cell-free autophosphorylation assay using the recombinant cytoplasmic domain of HER-2
As to the kind of experiment: Cell-free autophosphorylation kinase assay (ELISA), HER-2. The format is biochemical.

In assay [10] the target is T3, EGFR (Homo sapiens, UniProt P00533). Description: Cell-free autophosphorylation kinase assay (ELISA), EGFR. The format is biochemical. Further details: Purified recombinant C-terminal fragment of each enzyme is incubated with ATP. The conditions noted are these: read-out: Enzyme IC50 EGFR (converted).
Target sequence in this assay (P00533 669-1210 limits assumed): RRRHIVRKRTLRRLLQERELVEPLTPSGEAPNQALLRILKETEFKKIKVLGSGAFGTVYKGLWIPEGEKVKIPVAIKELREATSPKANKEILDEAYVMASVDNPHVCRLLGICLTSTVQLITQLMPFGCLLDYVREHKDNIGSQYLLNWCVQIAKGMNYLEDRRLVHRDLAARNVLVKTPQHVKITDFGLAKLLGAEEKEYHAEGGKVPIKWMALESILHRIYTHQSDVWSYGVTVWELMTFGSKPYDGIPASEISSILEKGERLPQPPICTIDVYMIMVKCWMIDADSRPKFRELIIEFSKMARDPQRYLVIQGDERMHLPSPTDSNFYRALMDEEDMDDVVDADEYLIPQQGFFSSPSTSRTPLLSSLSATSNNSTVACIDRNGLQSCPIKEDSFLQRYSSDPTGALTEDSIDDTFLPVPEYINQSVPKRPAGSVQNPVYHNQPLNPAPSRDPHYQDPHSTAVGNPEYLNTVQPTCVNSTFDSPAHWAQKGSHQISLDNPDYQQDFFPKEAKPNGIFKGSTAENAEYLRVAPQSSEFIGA
For assay [11], the target named is T3, EGFR. Description: EGFR receptor phosphorylation in A431 cells (immunoblot). The format is cell-based. More on the design: They also repressed EGF-dependent phosphorylation of EGFR in A431 cells; endogenous in cells; host or cells: A431. The conditions noted are these: for IC50 receptor phosphorylation A431: EGFR phosphorylation, 3 hours at 37° C., immunoblot; for IC50: span over the three compounds, read-out: EGF-dependent phosphorylation of EGFR in A431 cells IC50.
Target sequence in this assay (P00533 25-1210): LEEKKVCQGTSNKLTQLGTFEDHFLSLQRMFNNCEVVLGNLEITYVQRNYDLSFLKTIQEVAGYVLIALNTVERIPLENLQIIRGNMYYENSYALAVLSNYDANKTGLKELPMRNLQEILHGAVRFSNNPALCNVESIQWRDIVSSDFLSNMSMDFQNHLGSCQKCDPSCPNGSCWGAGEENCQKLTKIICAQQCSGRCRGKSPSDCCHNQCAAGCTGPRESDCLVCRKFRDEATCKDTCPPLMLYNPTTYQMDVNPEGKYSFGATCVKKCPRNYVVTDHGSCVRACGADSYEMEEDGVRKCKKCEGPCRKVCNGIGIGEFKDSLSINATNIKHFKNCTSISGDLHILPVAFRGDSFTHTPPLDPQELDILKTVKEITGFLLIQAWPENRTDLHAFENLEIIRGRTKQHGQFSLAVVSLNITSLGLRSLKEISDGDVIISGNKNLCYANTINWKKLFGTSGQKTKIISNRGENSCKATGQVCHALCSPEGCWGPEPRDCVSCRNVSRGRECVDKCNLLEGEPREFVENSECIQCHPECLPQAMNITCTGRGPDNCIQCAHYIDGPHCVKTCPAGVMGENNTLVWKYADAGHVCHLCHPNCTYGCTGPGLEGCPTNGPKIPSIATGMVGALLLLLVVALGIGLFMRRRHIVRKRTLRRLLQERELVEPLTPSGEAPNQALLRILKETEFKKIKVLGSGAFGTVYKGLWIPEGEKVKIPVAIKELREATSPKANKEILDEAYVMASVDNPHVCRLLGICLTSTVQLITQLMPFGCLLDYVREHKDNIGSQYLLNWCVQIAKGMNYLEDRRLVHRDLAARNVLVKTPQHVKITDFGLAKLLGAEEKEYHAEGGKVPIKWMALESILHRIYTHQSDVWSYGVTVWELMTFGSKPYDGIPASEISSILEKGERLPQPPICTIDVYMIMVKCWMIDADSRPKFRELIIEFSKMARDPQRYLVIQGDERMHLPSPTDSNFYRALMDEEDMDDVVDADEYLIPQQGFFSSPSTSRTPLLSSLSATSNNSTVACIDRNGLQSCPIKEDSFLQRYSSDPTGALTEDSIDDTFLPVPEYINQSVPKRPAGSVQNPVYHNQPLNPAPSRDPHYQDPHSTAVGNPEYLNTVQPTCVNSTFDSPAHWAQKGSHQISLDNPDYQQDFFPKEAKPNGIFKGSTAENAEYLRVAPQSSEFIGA

The test system of assay [12] is HER-2 overexpressing human xenograft models. As to the kind of experiment: HER-2 overexpressing human xenograft models (overall). In kind it is in vivo, mouse.
In assay [13] the test system is xenografts of SK-OV-3. Description: SK-OV-3 tumor xenograft in nude mice. The format is in vivo, mouse. The conditions noted are these: day 35.
For assay [14], the system named is xenografts of 3T3/neu cells. As to the kind of experiment: 3T3/neu tumor xenograft in nude mice. The format is in vivo, mouse. The conditions noted are these: for tumor growth inhibition: day 21.
In assay [15] the test system is xenografts of SUM-190. Description: SUM-190 tumor xenograft in nude mice. In kind it is in vivo, mouse. The conditions noted are these: 40 mg/kg/day PO, day 28.
The test system of assay [16] is BT474 xenografts. Description: BT474 tumor xenograft in nude mice. In kind it is in vivo, mouse. The conditions noted are these: day 21.
Where [17] appears, read: Her-2 phosphorylation, 3 hours at 37° C., immunoblot, read-out: IC50 receptor phosphorylation BT474 (converted).
Setting [18] is: NIH3T3, 48 h, EGFR −, Her-2 −, 2 days, SRB, read-out: CELL IC50 3T3.
Where [19] appears, read: NIH3T3, span over the three compounds, read-out: IC50 isogenic untransfected cells (3T3).
The mark [20] stands for this setting: HER-2 enzyme activity reduced by 50% (IC50), span over the three inhibitors.
The mark [21] stands for this setting: ligand-independent receptor phosphorylation decreased by 50% (IC50) in BT474 cells, span over the three compounds.

T2 sequence (P04626 676-1255 limits assumed): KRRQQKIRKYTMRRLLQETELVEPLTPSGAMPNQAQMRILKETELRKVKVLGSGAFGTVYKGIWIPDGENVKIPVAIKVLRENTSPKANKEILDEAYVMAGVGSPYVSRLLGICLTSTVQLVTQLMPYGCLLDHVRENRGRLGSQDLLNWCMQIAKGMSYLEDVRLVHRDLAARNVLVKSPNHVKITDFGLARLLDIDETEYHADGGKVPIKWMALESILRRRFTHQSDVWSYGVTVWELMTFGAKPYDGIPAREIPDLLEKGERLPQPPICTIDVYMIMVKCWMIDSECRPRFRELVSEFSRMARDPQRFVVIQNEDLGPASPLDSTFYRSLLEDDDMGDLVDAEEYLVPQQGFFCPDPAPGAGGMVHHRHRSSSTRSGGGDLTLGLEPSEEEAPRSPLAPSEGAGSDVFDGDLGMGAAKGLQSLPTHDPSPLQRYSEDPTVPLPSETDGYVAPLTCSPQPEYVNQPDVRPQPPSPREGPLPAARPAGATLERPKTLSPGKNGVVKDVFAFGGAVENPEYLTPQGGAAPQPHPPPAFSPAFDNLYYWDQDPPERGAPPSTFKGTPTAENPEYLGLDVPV

As to `COc1cc2ncc(C#N)c(Nc3ccc(Sc4nccn4C)c(Cl)c3)c2cc1NC(=O)/C=C/CN(C)C` [Example 37, (2E)-N-[4-({3-chloro-4-[(1-methyl-1H-imidazol-2-yl)sulfanyl]phenyl}amino)-3-cyano-7-methoxy-6-quinolinyl]-4-(dimethylamino)-2-butenamide], the IC50 in assay [1] was 0.02 µg/mL (≈ 0.0365 µM); in assay [3] it was 0.0004 µg/mL (≈ 0.00073 µM); in assay [4] it was 0.43 µg/mL (≈ 0.785 µM); in assay [5] (setting [17]), less than 1.82 µM; in assay [6], 0.43 µg/mL (≈ 0.785 µM). Further, the GI50 in assay [2] is 0.0365 µM.
Consider `COc1cc2ncc(C#N)c(Nc3ccc(Sc4nccs4)c(Cl)c3)c2cc1NC(=O)/C=C/CN(C)C` [Example 40, (2E)-N-(4-{[3-chloro-4-(1,3-thiazol-2-ylsulfanyl)phenyl]amino}-3-cyano-7-methoxy-6-quinolinyl)-4-(dimethylamino)-2-butenamide], for which the IC50 in assay [1] was 0.017 µg/mL (≈ 0.0308 µM); in assay [3] it was 0.0007 µg/mL (≈ 0.00127 µM); in assay [4] it was 1.13 µg/mL (≈ 2.05 µM); in assay [5] (setting [17]), 18.1 to 90.7 µM; in assay [6] it was 0.33 µg/mL (≈ 0.599 µM). Besides, the GI50 in assay [2] was 0.00363 µM.
For `CCOc1cc2ncc(C#N)c(Nc3ccc(OCc4ccccc4)c(Cl)c3)c2cc1NC(=O)/C=C/CN(C)C` [Example 1, (E)-N-{4-[4-(benzyloxy)-3-chloroanilino]-3-cyano-7-ethoxy-6-quinolinyl}-4-(dimethylamino)-2-butenamide], the IC50 was 0.38 µg/mL in assay [7] (setting [18]); 0.683 to 0.906 µM in assay [7] (setting [19]); 0.062 µg/mL (≈ 0.111 µM) in assay [1] (EGFR +++, Her-2 +, 2 days, SRB); 0.0015 µg/mL (≈ 0.0027 µM) in assay [3]; 0.0014 µg/mL (≈ 0.00252 µM) in assay [8]; 0.24 µg/mL (≈ 0.432 µM) in [4]. Besides, the IC50 in assay [9] (setting [20]) is 0.033 to 0.065 µM; in assay [9] (autophosphorylation, ELISA, read-out: Enzyme IC50 HER-2 (converted)) it was 0.0647 µM; in [10], 0.0504 µM; in assay [11], 0.003 to 0.007 µM; in [5] (setting [17]), 0.0135 µM; in assay [5] (setting [21]), 0.005 to 0.023 µM. Moreover, the IC50 in assay [6] worked out at 0.47 µg/mL (≈ 0.845 µM). Moreover, the GI50 in [2] was 0.00522 µM. Moreover, the “inhibition of the HER-2 enzyme (in words)” value in [9] was “potent inhibitors”. Further, the “IC50 receptor phosphorylation A431” value in assay [11] was found to be 0.0031 µg/mL (≈ 0.00557 µM).
Regarding `CCOc1cc2ncc(C#N)c(Nc3ccc(OCc4cccc(F)c4)c(Cl)c3)c2cc1NC(=O)/C=C/CN(C)C` [Example 3, (E)-N-(4-{3-chloro-4-[(3-fluorobenzyl)oxy]anilino}-3-cyano-7-ethoxy-6-quinolinyl)-4-(dimethylamino)-2-butenamide], the IC50 is 0.52 µg/mL in assay [7] (setting [18]); 0.683 to 0.906 µM in assay [7] (setting [19]); 0.069 µg/mL (≈ 0.12 µM) in [1] (EGFR +++, Her-2 +, 2 days, SRB); 0.0015 µg/mL (≈ 0.00261 µM) in assay [3]; 0.0024 µg/mL (≈ 0.00418 µM) in [8]; 0.29 µg/mL (≈ 0.505 µM) in assay [4]. The IC50 in assay [9] (setting [20]) was 0.033 to 0.065 µM; in assay [10], 0.0331 µM; in assay [11], 0.003 to 0.007 µM; in assay [5] (setting [17]), 0.0226 µM; in assay [5] (setting [21]), 0.005 to 0.023 µM; in [6] it was 0.51 µg/mL (≈ 0.888 µM). Moreover, the “tumor behaviour after treatment was completed (in words)” value in [12] (after end of treatment) is recorded as “evidence of re-growth”. Moreover, the “tumor regression (in words)” value in assay [12] (during dosing) is “no decrease in tumor size below the initial size”. In assay [12] (mouse, in vivo), the “MED in the HER-2 overexpressing human xenograft models” value was 10 mg/kg/day. In assay [2], the GI50 is 0.00401 µM. Also, the tumor growth inhibition in [13] (20 mg/kg/day PO) amounted to 86%; in assay [13] (60 mg/kg/day PO), 91%; in assay [14] (20 mg/kg/day PO) it was 65%; in [14] (40 mg/kg/day PO), 97%; in assay [14] (80 mg/kg/day PO), 99%; in assay [15], 94%. The “tumor growth inhibition, statistically-significant” value in [14] (10 mg/kg/day PO, two other independent tests) is given as 21-33%. For the same compound, the “minimum efficacious dose (MED)” value in assay [14] (smallest dose with sustained, statistically-significant (p<0.05) reduction of tumor growth) stood at 10 mg/kg/day. In addition, the “inhibition of the HER-2 enzyme (in words)” value in assay [9] is listed as “potent inhibitors”. Besides, in assay [9] (autophosphorylation, ELISA), the “Enzyme IC50 HER-2” value worked out at 0.019 µg/mL. The “IC50 receptor phosphorylation A431” value in [11] was determined as 0.0042 µg/mL (≈ 0.00732 µM). Also, the results for the “maximum tumor growth inhibition” value in assay [16] (10 mg/kg/day PO) and in [16] (40 mg/kg/day PO) were 59% and 96%, respectively.
